# Results published in patent publication US8440617B2, “Hyperbaric treatment in wound healing” (The Trustees of the University of Pennsylvania, priority 2007, dated 2013).
# Entries after “also recorded” stand apart in the source; their conditions may differ.
# Key:
# [1] = tested on: diabetic cutaneous wounds; assay: Peripheral wound healing (wound closure) in diabetic mice; assay type: in vivo, mouse
# Protocol: (§1) Tie2-GFP, wild-type or chimeric FVB mice at 6-12 wk of age were treated with STZ (Sigma-Aldrich) to induce diabetes. Mice were rendered diabetic by i.p. administration of 60 mg/kg STZ in 50 mM sodium citrate, pH 4.5, daily for 5 d. Control mice were treated with daily injections of citrate buffer. Serum glucose was measured from the mouse tail vein using a glucometer. Once serum glucose reached 250 mg/dL, mice were followed with daily measurements for 1 wk prior to use in experiments. Serum glucose levels in STZ mice averaged 461 mg/dL with a range of 372-520 mg/dL, while control mice serum glucose mean level was 120 mg/dL with a range of 94-135 mg/dL. Wounds were induced on the ventral surface of the mouse thigh using a 4 mm punch biopsy. Full-thickness skin was removed, exposing the underlying muscle.
# Initial wound surface area was recorded and wounds were then followed serially with daily digital photographs using an Olympus digital camera. Photographs contained an internal scale to allow for standard calibration of measurements. Wound area was quantified using ImageJ software. Wound area was expressed as the percentage of original wound size. Wounds were followed for 6 d and mice were sacrificed at the conclusion of the experiment.
# EPCs play a key role in vasculogenesis and cutaneous tissue repair. It was hypothesized that increased numbers of EPCs in circulation, along with enhanced EPC homing to wounds, results in improved wound healing in diabetes. Diabetic wound closure rates were studied, in response to treatment with HBO and SDF-1α alone and in combination. Wounded diabetic mice underwent daily wound injections with SDF-1α, PBS, HBO, or SDF-1α+HBO treatments. […] This healing response was greater than the response to either treatment modality alone. In addition, histochemical analysis was conducted to examine blood vessel density (VEGFR2 staining), cellularity and stromagenesis (H&E staining), and extracellular constitution (trichrome staining) in wound tissues. […]
# [2] = tested on: circulating EPCs (CXCR4+/VEGFR2+, Tie2+/VEGFR2+); assay: Circulating EPCs by flow cytometry in STZ-diabetic mice; assay type: in vivo, mouse; settings: diabetic mice treated with insulin
# Protocol: as §1
# For HBO treatment, mice were placed in an animal hyperbaric chamber (Reneau Corp.) and subjected to 100% oxygen at 2.4 atmospheres absolute (ATA) for 90 min (Davis Wound Healing Protocol). To measure continuous, real-time BM NO levels, NO microelectrodes was inserted into the femoral marrow cavity as previously described. An osteotomy was created on the patellar surface of the murine femur using a 25 G beveled needle, allowing the electrode to be lowered into the marrow space when the animal was placed in the hyperbaric chamber. In some mice, pretreatment with L-NAME (40 mg/kg i.p.) (Sigma-Aldrich) was given 2 h prior to exposure to HBO.
# Mobilization of EPCs into circulation was studied using flow cytometry as previously described. Cells isolated from mice were incubated with various Abs (BD Biosciences). Isotype matched mouse immunoglobulins served as controls. One million viable cells were analyzed per sample using an LSR2 multicolor flow cytometer (BD Biosciences). Data was analyzed using FlowJo software (Treestar, Inc.).
# Physiologically, increased levels of BM NO result in activation of MMP-9 and conversion of kit ligand to its soluble form, ultimately generating EPC release into circulation. To study the effects of the hyperoxia-induced rise in NO levels in the marrow cavity on mobilization of EPCs into circulation, peripheral blood from diabetic mice was analyzed for EPCs using flow cytometry. A determination of whether hyperoxia, induced by HBO, increases the number of circulating EPCs in the peripheral blood of diabetic mice was made. Specifically, peripheral blood of diabetic mice was examined 18 h after a single HBO treatment. After excluding dead DAPI^+labeled cells, candidate lymphocytes, identified by their typical appearance on forward and side scatter, were gated and CD45^+/CD3^+cell populations were excluded. […] Therefore, several marker combinations were used to quantitate circulating EPCs. […]
substance,measurement,setting,value
"insulin: human insulin (NPH), 6 U/kg twice/d i.p.","wound healing rate, insulin combined with HBO+SDF-1α therapy",[1]; diabetic mice,did not further accelerate
same,wound healing rates,[1]; diabetic mice treated with insulin 6 U/kg twice/d i.p.,failed to improve; also recorded: Little effect
same,EPC mobilization,[2],little effect; also recorded: does not increase
